Reference: patent publication US20070166367A1, “Adept or gdept producing acetaldehyde” (priority 2004, published 2007)
Like-named read-outs stand apart in the source and are kept apart here.

How the values were obtained:
Daudi lymphoma cells = test: chronic exposure of Daudi lymphoma cells to acetaldehyde in tissue culture; assay type: cell-based
Method: The effect of acetaldehyde on Daudi lymphoma cells was investigated. Chronic exposure to acetaldehyde of Daudi lymphoma cells in tissue culture was investigated with the media and acetaldehyde replaced every 24 hours, with the lids either tight closed or slightly open (the norm for tissue culture).
B. Repeat method as above changing media and replacing acetaldehyde every 24 hours.
Results are shown as the number of cells×10^4 remaining viable at each time point. (Days 0-6)

[1] = in vitro acetaldehyde and cisplatin toxicity assay; assay type: cell-based; details: human, Daudi cells; higher concentrations (500 uM and 1 mM), day 3, FIG. 1; read-out: viable cell numbers as % of starting number
Method: (§1) Standard tissue culture techniques were used to maintain Hela, Daudi, Jurkat, CMT-64 cells in flasks in DMEM+10% FCS in a 37° C. incubator.
(§2) Cell lines subcloned into 25-cm^2 flasks and incubated in media containing dilutions of acetaldehyde, cisplatin or both. Flasks remained sealed during incubation and the media and acetaldehyde/cisplatin were replaced daily. Viable cell counts were made using Trypan blue exclusion and a standard haemocytometer.

CMT-64 = test: in vitro acetaldehyde and cisplatin toxicity assay; assay type: cell-based
Method: as §1, §2

Daudi = test: in vitro acetaldehyde and cisplatin toxicity assay; assay type: cell-based
Method: as §1, §2

[2] = in vitro acetaldehyde toxicity assay; assay type: cell-based; details: human, Jurkat cells; higher concentrations (500 uM and 1 mM), day 3, FIG. 1; read-out: viable cell numbers as % of starting number
Method: as §1, §2

Hela = test: in vitro acetaldehyde toxicity assay; assay type: cell-based; details: 250 uM acetaldehyde
Method: as §1, §2

Jurkat = test: in vitro acetaldehyde toxicity assay; assay type: cell-based
Method: as §1, §2

[3] = target: T1, aldehyde dehydrogenase 1 (ALDH1) (Homo sapiens, UniProt P00352); details: cited from earlier work
T1 sequence (P00352 1-501): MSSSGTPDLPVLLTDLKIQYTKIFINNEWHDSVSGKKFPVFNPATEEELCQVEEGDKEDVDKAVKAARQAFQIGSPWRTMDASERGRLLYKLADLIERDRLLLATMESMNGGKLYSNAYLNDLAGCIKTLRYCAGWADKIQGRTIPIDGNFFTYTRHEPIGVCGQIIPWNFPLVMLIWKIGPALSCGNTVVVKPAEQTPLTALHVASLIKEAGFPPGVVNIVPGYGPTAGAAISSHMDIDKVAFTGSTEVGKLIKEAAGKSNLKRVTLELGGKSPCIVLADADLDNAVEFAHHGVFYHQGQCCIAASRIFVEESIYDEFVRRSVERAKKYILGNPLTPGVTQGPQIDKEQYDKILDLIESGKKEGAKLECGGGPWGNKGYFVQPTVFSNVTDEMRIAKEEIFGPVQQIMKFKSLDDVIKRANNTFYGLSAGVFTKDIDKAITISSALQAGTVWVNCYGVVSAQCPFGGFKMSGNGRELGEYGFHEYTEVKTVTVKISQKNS

[4] = target: T2, Acetaldehyde dehydrogenase 2 (ALDH2) (Homo sapiens, UniProt P05091); details: cited from earlier work
T2 sequence (P05091 18-517): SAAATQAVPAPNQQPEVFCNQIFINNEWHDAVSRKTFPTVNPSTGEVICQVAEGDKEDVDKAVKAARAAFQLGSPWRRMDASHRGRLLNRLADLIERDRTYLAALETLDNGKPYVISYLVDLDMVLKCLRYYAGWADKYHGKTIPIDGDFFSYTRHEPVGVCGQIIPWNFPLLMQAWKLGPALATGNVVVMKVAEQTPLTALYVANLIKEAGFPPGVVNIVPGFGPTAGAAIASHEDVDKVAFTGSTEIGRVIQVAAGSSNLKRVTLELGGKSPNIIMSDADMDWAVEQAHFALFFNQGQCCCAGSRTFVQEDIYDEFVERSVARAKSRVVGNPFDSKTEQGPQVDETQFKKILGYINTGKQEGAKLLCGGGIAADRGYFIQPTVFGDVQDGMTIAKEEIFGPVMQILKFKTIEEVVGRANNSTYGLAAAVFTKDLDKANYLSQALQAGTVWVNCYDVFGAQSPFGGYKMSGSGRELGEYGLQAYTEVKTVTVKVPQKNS

DNA = details: cited from earlier work
Human Fibroblasts = details: 5 hr exposure, cited from earlier work
Human Lymphocytes = details: cited from earlier work
[5] = in vivo; cited from earlier work

Structure (SMILES): CC=O [acetaldehyde]
- Numbers of viable cells (Daudi lymphoma cells; 100 μM closed, 4S hr): 280000 mL⁻¹
- Numbers of viable cells (Daudi lymphoma cells; 100 μM closed, 22 hr): 230000 mL⁻¹
- Numbers of viable cells (Daudi lymphoma cells; 100 μM closed, 68 hr): 370000 mL⁻¹
- Numbers of viable cells (Daudi lymphoma cells; 100 μM open, 22 hr): 260000 mL⁻¹
- Numbers of viable cells (Daudi lymphoma cells; 100 μM open, 68 hr): 510000 mL⁻¹
- cell killing (Daudi lymphoma cells; 100 μM, 6 days exposure): high levels of cell death
- cell killing (Daudi lymphoma cells; 100 μM, by 68 hours): no cell death but some inhibition of the rate of growth
- number of cells remaining viable (Daudi lymphoma cells; 100 μM, day 1): 25 ×10^4
- number of cells remaining viable (Daudi lymphoma cells; 100 μM, day 2): 28 ×10^4
- number of cells remaining viable (Daudi lymphoma cells; 100 μM, day 3): 32 ×10^4
- number of cells remaining viable (Daudi lymphoma cells; 100 μM, day 4): 26 ×10^4
- number of cells remaining viable (Daudi lymphoma cells; 100 μM, day 5): 19 ×10^4
- number of cells remaining viable (Daudi lymphoma cells; 100 μM, day 6): 2 (two) ×10^4
- number of cells remaining viable (Daudi lymphoma cells; 250 μM, day 1): 31 ×10^4
- number of cells remaining viable (Daudi lymphoma cells; 250 μM, day 2): 25 ×10^4
- number of cells remaining viable (Daudi lymphoma cells; 250 μM, day 3): 14 ×10^4
- number of cells remaining viable (Daudi lymphoma cells; 250 μM, day 4): 13 ×10^4
- number of cells remaining viable (Daudi lymphoma cells; 250 μM, day 5): 0 ×10^4
- cell killing (Daudi lymphoma cells; 500 μM and above, 3-4 days exposure): high levels of cell death
- Numbers of viable cells (Daudi lymphoma cells; 500 μM closed, 4S hr): 180000 mL⁻¹
- Numbers of viable cells (Daudi lymphoma cells; 500 μM closed, 22 hr): 200000 mL⁻¹
- Numbers of viable cells (Daudi lymphoma cells; 500 μM closed, 68 hr): 40000 mL⁻¹
- Numbers of viable cells (Daudi lymphoma cells; 500 μM open, 4S hr): 210000 mL⁻¹
- Numbers of viable cells (Daudi lymphoma cells; 500 μM open, 22 hr): 220000 mL⁻¹
- Numbers of viable cells (Daudi lymphoma cells; 500 μM open, 68 hr): 40000 mL⁻¹
- number of cells remaining viable (Daudi lymphoma cells; 500 μM, day 1): 31 ×10^4
- number of cells remaining viable (Daudi lymphoma cells; 500 μM, day 2): 16 ×10^4
- number of cells remaining viable (Daudi lymphoma cells; 500 μM, day 3): 11 ×10^4
- number of cells remaining viable (Daudi lymphoma cells; 500 μM, day 4): 3 ×10^4
- number of cells remaining viable (Daudi lymphoma cells; 500 μM, day 5): 0 ×10^4
- cell killing (Daudi lymphoma cells; 500 μM, within 3 days): nearly all the cells are dead
- number of cells remaining viable (Daudi lymphoma cells; 750 μM, day 1): 28 ×10^4
- number of cells remaining viable (Daudi lymphoma cells; 750 μM, day 2): 18 ×10^4
- number of cells remaining viable (Daudi lymphoma cells; 750 μM, day 3): 5 ×10^4
- number of cells remaining viable (Daudi lymphoma cells; 750 μM, day 4): 2 ×10^4
- number of cells remaining viable (Daudi lymphoma cells; 750 μM, day 5): 0 ×10^4
- Numbers of viable cells (Daudi lymphoma cells; 1000 μM closed, 4S hr): 30000 mL⁻¹
- Numbers of viable cells (Daudi lymphoma cells; 1000 μM closed, 22 hr): 140000 mL⁻¹
- Numbers of viable cells (Daudi lymphoma cells; 1000 μM closed, 68 hr): 0 mL⁻¹
- Numbers of viable cells (Daudi lymphoma cells; 1000 μM open, 4S hr): 80000 mL⁻¹
- Numbers of viable cells (Daudi lymphoma cells; 1000 μM open, 22 hr): 180000 mL⁻¹
- Numbers of viable cells (Daudi lymphoma cells; 1000 μM open, 68 hr): 20000 mL⁻¹
- cell killing (Daudi lymphoma cells; 1000 μM, within 3 days): kill all the cells
- viability at 3 days [1]: 37%
- concentrations at which significant growth inhibition occurred (CMT-64): over 500 uM
- effect on proliferation (CMT-64; 250 uM acetaldehyde): reduction in the rate of proliferation
- cell number as % of starting number (CMT-64; FIG. 2): 170%
- effect on proliferation (Daudi; 250 uM acetaldehyde): reduction in the rate of proliferation
- cell number as % of starting number (Daudi; higher cell density, 3 days exposure, FIG. 2): 67%
- viability at 3 days [2]: 7%
- effect on proliferation (Hela): reduction in the rate of proliferation
- effect on proliferation (Jurkat; 250 uM acetaldehyde): reduction in the rate of proliferation
- viable cells (Jurkat; day 4, FIG. 1): no Jurkat cells viable
- Km [3]: 22 µM
- Km [4]: 3.5 µM
- concentration that is toxic and produces irreparable DNA damage (DNA): 1.56 mM
- % survival (Human Fibroblasts; 1 mM): 75%
- % survival (Human Fibroblasts; 2 mM): 55%
- Number of metaphases (cell divisions) counted (Human Lymphocytes; 90 μM): 200
- Number of metaphases (cell divisions) counted (Human Lymphocytes; 180 μM): 200
- Number of metaphases (cell divisions) counted (Human Lymphocytes; 360 μM): 200
- Number of metaphases (cell divisions) counted (Human Lymphocytes; 720 μM): 130
- Number of metaphases (cell divisions) counted (Human Lymphocytes; 1080 μM): 23
- Number of metaphases (cell divisions) counted (Human Lymphocytes; 1440 μM): 0 and no growth
- level described for systemic acetaldehyde toxicity [5]: 40 to 60 µM
